According to patent publication US20250120989A1, “BRIDGED TRICYCLIC CARBAMOYLPYRIDONE COMPOUNDS AND USES THEREOF” (priority 2023, published 2025):
Read-outs that look alike come from different tables or passages of the source.

Assays:
[1] = test system: HIV-1 (IIIB); assay: microbe, parasite or virus in culture; format: cell-based; details: read-out: MT4 EC50
[2] = in vitro; details: human; for CC50 at 5 days: uninfected MT-4 cells
[3] = Human immunodeficiency virus 1, MT4, 120 h, HIV-1 (IIIB) replication in MT-4 cells, 5 days, Cell Titer Glo

With `COC1=NO[C@@]2(CC[C@H](C)N3C[C@H]2n2cc(C(=O)NCc4ccc(F)cc4F)c(=O)c(OCOP(=O)(O)O)c2C3=O)C1` [Compound 1, (((3′S,5S,7′R)-10′-((2,4-difluorobenzyl)carbamoyl)-3-methoxy-3′-methyl-1′,11′-dioxo-1′,4′,5′,11′-tetrahydro-3′H,4H,7′H-spiro[isoxazole-5,6′-[2,7]methanopyrido[1,2-a][1,4]diazonin]-12′-yl)oxy)methyl dihydrogen phosphate] the EC50 [1, 3] was 0.00177 µM and the CC50 at 5 days [2] was 15.4 µM.
For `CC1=NO[C@@]2(CC[C@H](C)N3C[C@H]2n2cc(C(=O)NCc4ccc(F)cc4F)c(=O)c(OC(=O)C(C)(C)CCN(CC(=O)O)C(=O)OCOP(=O)(O)O)c2C3=O)C1` [Compound 2, N-(4-(((3′S,5S,7′R)-10′-((2,4-difluorobenzyl)carbamoyl)-3,3′-dimethyl-1′,11′-dioxo-1′,4′,5′,11′-tetrahydro-3′H,4H,7′H-spiro[isoxazole-5,6′-[2,7]methanopyrido[1,2-a][1,4]diazonin]-12′-yl)oxy)-3,3-dimethyl-4-oxobutyl)-N-(((phosphonooxy)methoxy)carbonyl)glycine], the EC50 [1, 3] was 0.00137 µM and the CC50 at 5 days [2] was 12.3 µM.
`CC1=NO[C@@]2(CC[C@H](C)N3C[C@H]2n2cc(C(=O)NCc4ccc(F)cc4F)c(=O)c(OC(C)OC(=O)OCCOP(=O)(O)O)c2C3=O)C1` (stereo partly drawn) [Compound 5, 1-(((3′S,5S,7′R)-10′-((2,4-difluorobenzyl)carbamoyl)-3,3′-dimethyl-1′,11′-dioxo-1′,4′,5′,11′-tetrahydro-3′H,4H,7′H-spiro[isoxazole-5,6′-[2,7]methanopyrido[1,2-a][1,4]diazonin]-12′-yl)oxy)ethyl (2-(phosphonooxy)ethyl) carbonate] showed an EC50 [1, 3] of 0.00196 µM and a CC50 at 5 days [2] of 10.6 µM.
`CC1=NO[C@@]2(CC[C@H](C)N3C[C@H]2n2cc(C(=O)NCc4ccc(F)cc4F)c(=O)c(OC(=O)OCCOP(=O)(O)O)c2C3=O)C1` [Compound 6, (3′S,5S,7′R)-10′-((2,4-difluorobenzyl)carbamoyl)-3,3′-dimethyl-1′,11′-dioxo-1′,4′,5′,11′-tetrahydro-3′H,4H,7′H-spiro[isoxazole-5,6′-[2,7]methanopyrido[1,2-a][1,4]diazonin]-12′-yl (2-(phosphonooxy)ethyl) carbonate] showed an EC50 ([1]; Human immunodeficiency virus 1, IIIB, MT4, 120 h) of 0.00209 µM and a CC50 [2] of 15.2 µM.
`CC1=NO[C@@]2(CC[C@H](C)N3C[C@H]2n2cc(C(=O)NCc4ccc(F)cc4F)c(=O)c(OCOC(=O)OCCN(C)C)c2C3=O)C1` [Compound 14, (((3′S,5S,7′R)-10′-((2,4-difluorobenzyl)carbamoyl)-3,3′-dimethyl-1′,11′-dioxo-1′,4′,5′,11′-tetrahydro-3′H,4H,7′H-spiro[isoxazole-5,6′-[2,7]methanopyrido[1,2-a][1,4]diazonin]-12′-yl)oxy)methyl (2-(dimethylamino)ethyl) carbonate] gave a CC50 at 5 days [2] of 17.1 µM.
For `CC1=NO[C@@]2(CC[C@H](C)N3C[C@H]2n2cc(C(=O)NCc4ccc(F)cc4F)c(=O)c(OCOC(=O)N(C)CC(=O)O)c2C3=O)C1` [Compound 45, N-(((((3′S,5S,7′R)-10′-((2,4-difluorobenzyl)carbamoyl)-3,3′-dimethyl-1′,11′-dioxo-1′,4′,5′,11′-tetrahydro-3′H,4H,7′H-spiro[isoxazole-5,6′-[2,7]methanopyrido[1,2-a][1,4]diazonin]-12′-yl)oxy)methoxy)carbonyl)-N-methylglycine], the CC50 at 5 days [2] was 50 µM.
`CC[C@H](OP(=O)(O)O)[C@H](C)OC(=O)OCOc1c2n(cc(C(=O)NCc3ccc(F)cc3F)c1=O)[C@@H]1CN(C2=O)[C@@H](C)CC[C@]12CC(C)=NO2` [Compound 72, (((3′S,5S,7′R)-10′-((2,4-difluorobenzyl)carbamoyl)-3,3′-dimethyl-1′,11′-dioxo-1′,4′,5′,11′-tetrahydro-3′H,4H,7′H-spiro[isoxazole-5,6′-[2,7]methanopyrido[1,2-a][1,4]diazonin]-12′-yl)oxy)methyl ((2S,3S)-3-(phosphonooxy)pentan-2-yl) carbonate] showed a CC50 at 5 days [2] of 27.2 µM.
Molecule `CC[C@@H](OP(=O)(O)O)[C@H](C)OC(=O)OCOc1c2n(cc(C(=O)NCc3ccc(F)cc3F)c1=O)[C@@H]1CN(C2=O)[C@@H](C)CC[C@]12CC(C)=NO2` [Compound 73, (((3′S,5S,7′R)-10′-((2,4-difluorobenzyl)carbamoyl)-3,3′-dimethyl-1′,11′-dioxo-1′,4′,5′,11′-tetrahydro-3′H,4H,7′H-spiro[isoxazole-5,6′-[2,7]methanopyrido[1,2-a][1,4]diazonin]-12′-yl)oxy)methyl ((2S,3R)-3-(phosphonooxy)pentan-2-yl) carbonate] has a CC50 at 5 days [2] of 30.8 µM.
In the case of `CC[C@H](OP(=O)(O)O)[C@H](C)OC(=O)OCOc1c2n(cc(C(=O)NCc3ccc(F)cc3F)c1=O)[C@@H]1CN(C2=O)[C@@H](C)CC[C@]12CC(OC)=NO2` [Compound 74, (((3′S,5S,7′R)-10′-((2,4-difluorobenzyl)carbamoyl)-3-methoxy-3′-methyl-1′,11′-dioxo-1′,4′,5′,11′-tetrahydro-3′H,4H,7′H-spiro[isoxazole-5,6′-[2,7]methanopyrido[1,2-a][1,4]diazonin]-12′-yl)oxy)methyl ((2S,3S)-3-(phosphonooxy)pentan-2-yl) carbonate], the CC50 at 5 days [2] is reported as 26.6 µM.
With `CC[C@@H](OP(=O)(O)O)[C@H](C)OC(=O)OCOc1c2n(cc(C(=O)NCc3ccc(F)cc3F)c1=O)[C@@H]1CN(C2=O)[C@@H](C)CC[C@]12CC(OC)=NO2` [Compound 75, (((3′S,5S,7′R)-10′-((2,4-difluorobenzyl)carbamoyl)-3-methoxy-3′-methyl-1′,11′-dioxo-1′,4′,5′,11′-tetrahydro-3′H,4H,7′H-spiro[isoxazole-5,6′-[2,7]methanopyrido[1,2-a][1,4]diazonin]-12′-yl)oxy)methyl ((2S,3R)-3-(phosphonooxy)pentan-2-yl) carbonate] the CC50 at 5 days [2] was 34.3 µM.
Molecule `CC[C@@H](OP(=O)(O)O)[C@@H](C)OC(=O)OCOc1c2n(cc(C(=O)NCc3ccc(F)cc3F)c1=O)[C@@H]1CN(C2=O)[C@@H](C)CC[C@]12CC(C)=NO2` [Compound 76, (((3′S,5S,7′R)-10′-((2,4-difluorobenzyl)carbamoyl)-3,3′-dimethyl-1′,11′-dioxo-1′,4′,5′,11′-tetrahydro-3′H,4H,7′H-spiro[isoxazole-5,6′-[2,7]methanopyrido[1,2-a][1,4]diazonin]-12′-yl)oxy)methyl ((2R,3R)-3-(phosphonooxy)pentan-2-yl) carbonate] has a CC50 at 5 days [2] of 24.8 µM.
Molecule `CC[C@H](OP(=O)(O)O)[C@@H](C)OC(=O)OCOc1c2n(cc(C(=O)NCc3ccc(F)cc3F)c1=O)[C@@H]1CN(C2=O)[C@@H](C)CC[C@]12CC(C)=NO2` [Compound 77, (((3′S,5S,7′R)-10′-((2,4-difluorobenzyl)carbamoyl)-3,3′-dimethyl-1′,11′-dioxo-1′,4′,5′,11′-tetrahydro-3′H,4H,7′H-spiro[isoxazole-5,6′-[2,7]methanopyrido[1,2-a][1,4]diazonin]-12′-yl)oxy)methyl ((2R,3S)-3-(phosphonooxy)pentan-2-yl) carbonate] has a CC50 at 5 days [2] of 37 µM.
With `CC[C@@H](OP(=O)(O)O)[C@@H](C)OC(=O)OCOc1c2n(cc(C(=O)NCc3ccc(F)cc3F)c1=O)[C@@H]1CN(C2=O)[C@@H](C)CC[C@]12CC(OC)=NO2` [Compound 78, (((3′S,5S,7′R)-10′-((2,4-difluorobenzyl)carbamoyl)-3-methoxy-3′-methyl-1′,11′-dioxo-1′,4′,5′,11′-tetrahydro-3′H,4H,7′H-spiro[isoxazole-5,6′-[2,7]methanopyrido[1,2-a][1,4]diazonin]-12′-yl)oxy)methyl ((2R,3R)-3-(phosphonooxy)pentan-2-yl) carbonate] the CC50 at 5 days [2] was 28.6 µM.
With `CC[C@H](OP(=O)(O)O)[C@@H](C)OC(=O)OCOc1c2n(cc(C(=O)NCc3ccc(F)cc3F)c1=O)[C@@H]1CN(C2=O)[C@@H](C)CC[C@]12CC(OC)=NO2` [Compound 79, (((3′S,5S,7′R)-10′-((2,4-difluorobenzyl)carbamoyl)-3-methoxy-3′-methyl-1′,11′-dioxo-1′,4′,5′,11′-tetrahydro-3′H,4H,7′H-spiro[isoxazole-5,6′-[2,7]methanopyrido[1,2-a][1,4]diazonin]-12′-yl)oxy)methyl ((2R,3S)-3-(phosphonooxy)pentan-2-yl) carbonate] the CC50 at 5 days [2] was 45.7 µM.
Molecule `CC1=NO[C@@]2(CC[C@H](C)N3C[C@H]2n2cc(C(=O)NCc4ccc(F)cc4F)c(=O)c(OCOC(=O)OC[C@H](OP(=O)(O)O)C(C)C)c2C3=O)C1` [Compound 80, (((3′S,5S,7′R)-10′-((2,4-difluorobenzyl)carbamoyl)-3,3′-dimethyl-1′,11′-dioxo-1′,4′,5′,11′-tetrahydro-3′H,4H,7′H-spiro[isoxazole-5,6′-[2,7]methanopyrido[1,2-a][1,4]diazonin]-12′-yl)oxy)methyl ((R)-3-methyl-2-(phosphonooxy)butyl) carbonate] has a CC50 at 5 days [2] of 27.2 µM.
Molecule `COC1=NO[C@@]2(CC[C@H](C)N3C[C@H]2n2cc(C(=O)NCc4ccc(F)cc4F)c(=O)c(OCOC(=O)OC[C@H](OP(=O)(O)O)C(C)C)c2C3=O)C1` [Compound 81, (((3′S,5S,7′R)-10′-((2,4-difluorobenzyl)carbamoyl)-3-methoxy-3′-methyl-1′,11′-dioxo-1′,4′,5′,11′-tetrahydro-3′H,4H,7′H-spiro[isoxazole-5,6′-[2,7]methanopyrido[1,2-a][1,4]diazonin]-12′-yl)oxy)methyl ((R)-3-methyl-2-(phosphonooxy)butyl) carbonate] has a CC50 at 5 days [2] of 36.9 µM.
`COC1=NO[C@@]2(CC[C@H](C)N3C[C@H]2n2cc(C(=O)NCc4ccc(F)cc4F)c(=O)c(OCOC(=O)OC[C@@H](OP(=O)(O)O)C(C)C)c2C3=O)C1` [Compound 82, (((3′S,5S,7′R)-10′-((2,4-difluorobenzyl)carbamoyl)-3-methoxy-3′-methyl-1′,11′-dioxo-1′,4′,5′,11′-tetrahydro-3′H,4H,7′H-spiro[isoxazole-5,6′-[2,7]methanopyrido[1,2-a][1,4]diazonin]-12′-yl)oxy)methyl ((S)-3-methyl-2-(phosphonooxy)butyl) carbonate] gave a CC50 at 5 days [2] of 39.7 µM.
